Four compounds from publication doi:10.1101/2025.07.20.665728 (bioRxiv, 2025) can be followed below.

One experiment concerns C1R.MR1 cells. The experiment in a line: Cell surface MR1 quantification by flow cytometry, C1R.MR1. The experiment is classed as cell-based. The following applies: for MR1 cell surface expression: 1–200 μM. The procedure:
Next, we investigated whether these RF catabolites can impact MR1 cell surface expression in both MR1-transduced B cell lymphoblastoid (C1R.MR1) and monocytic (THP-1.MR1) cell lines (Fig. 2). Here, the cells were pulsed with 1–200 μM of RF or the RF catabolites, and the cell surface levels of MR1 were quantified by flow cytometry ([Awad et al., 2020a]; [Keller et al., 2017]). Cell viability was unaffected, even at highest concentrations of the catabolites, as depicted in Fig. S2A. […] No impact on the MR1 surface level was observed when the parental C1R cells were incubated with these RF catabolites, probably due to the low basal surface MR1 level whose further reduction becomes undetectable by the anti-MR1 antibody (Fig. S2B). The MR1 downregulation seen in C1R.MR1 cells was specific to MR1 as the level of HLA-A*02:01 was not affected after pulsing C1R-A2 with the ligands (Fig. S2C). […] This MR1 downregulation varied between cell types, with a higher extent observed in THP-1.MR1 than C1R.MR1, and was seen after staining with both two conformational anti-MR1 8F2F9 and 26.5 antibodies (clones 8F2F9 and 26.5; Fig. 2G).
The level of MR1 expressed on the cell surface was measured after the exposure to the investigated ligands as previously described ([Awad et al., 2020a]; [Wang et al., 2022a]). C1R antigen presenting B lymphocytes overexpressing MR1*01 (C1R.MR1), MR1^K43A mutant (C1R.MR1^K43A), MR1^R9H mutant (C1R.MR1^R9H) or HLA-A*02:01 (C1R-A2), in addition to the monocytic THP-1-MR1 cells, were used in this study. 2 x 10^5 cells were incubated with RF catabolites for 3 or 16 h at 37° C and 5% CO2 in 200 μl folate-free RPMI 1640 medium from Gibco (Cat. No. 11875-093) fortified with 10% fetal bovine serum (FBS), sodium pyruvate (1 mmol/L), Hepes buffer (15 mmol/L), pH 7.2 to 7.5, 2% penicillin (100 U/ml), streptomycin ([…]), glutamax (2 mmol/L), nonessential amino acids (0.1 mmol/L) (all from ThermoFisher, Life Technologies), and 2-mercaptoethanol ([…], Sigma) (RF-10). After incubation, the cells were first stained with Zombie Aqua Fixable Viability Kit from BioLegend (Cat. No. 423102) and then incubated with biotinylated 8F2F9 αMR1 antibody for 30 minutes on ice. The unbound antibody was then washed off with 2% fetal bovine serum/PBS. The cells were finally incubated with PE-conjugated streptavidin (BioLegend, 30 μg/ml) and then washed with 2% fetal bovine serum/PBS. The PE fluorescence intensity reflects the surface MR1 level. The data was acquired with an LSRFortessa X-20 (BD Biosciences) and Diva software (BD Biosciences) and analyzed using FlowJo software (BD Biosciences).

Experiment [1] has as its target T1, human MR1-β2-microglobulin (β2m) complex (Homo sapiens, UniProt Q95460).
T1 construct: plasmids encoding for the extracellular domains of MR1, β2m, and the AF-7 TCRα and TCRβ chains; made in house
Put plainly: In vitro refolding of MR1-β2m co-complex with ligand. The experiment is classed as binding. The following applies: ligand added to refolding buffer. From the text:
We then assessed the capacity of RF and its catabolites to be loaded within recombinant MR1. The human MR1-β2-microglobulin (β2m) complex can only co-purify when the MR1 Ag-binding pocket is occupied with ligand ([Kjer-Nielsen et al., 2012]). […] Next, we examined how these catabolites could stabilize MR1 using an in vitro MR1-Ag complexes through thermostability assay ([Eckle et al., 2014]) (Fig. 1H). Here, the half-maximum melting temperatures (Tm50) of the stable complexes MR1-5-OP-RU and MR1-Ac-6-FP were 58.65 ± 0.42 and 62.12 ± 0.37 °C; respectively, consistent with previous values ([Eckle et al., 2014]). […] Thus, the binding of these ligands stabilizes the MR1 protein but to a lower extent in comparison to MR1-5-OP-RU and MR1-Ac-6-FP (Fig. 1H).
Escherichia coli BL21(DE3) cells were transformed with plasmids encoding for the extracellular domains of MR1, β2m, and the AF-7 TCRα and TCRβ chains ([Kjer-Nielsen et al., 2012]; [Patel et al., 2013]; [Wang et al., 2022a]). The proteins were then expressed, and the inclusion bodies were purified, cleaned, and used for refolding. For both MR1 and AF-7 TCR, inclusion bodies were refolded through rapid dilution overnight as previously mentioned ([Keller et al., 2017]). To refold MR1 with ligands, 58 mg MR1 inclusion bodies along with 30 mg of β2m inclusion bodies were placed in a 500 ml of refold buffer consisting of 0.1 M Tris pH 8.0, 5 M of urea, 2 mM EDTA, 2.5 mM oxidized glutathione, 20 mM reduced glutathione and 0.4 M of L-arginine for 16 h at 4° C. Ligands were dissolved in dilute NaOH and added directly into the refolding buffer. […] The refolded MR1-ligand complex was dialyzed against 10 mM Tris pH 8.0 overnight and purified using size-exclusion (Superdex 200, GE Healthcare) and anion-exchange (HiTrapQ, GE Healthcare) chromatography techniques ([Awad et al., 2020a]).

Experiment [2] deals with SKW-3 cells expressing MBV28 (TRAV1-2/TRBV28) TCR. The experiment in a line: MAIT cell activation assay, SKW-3 MBV28 TCR co-cultured with C1R.MR1. The experiment is classed as cell-based. Particulars: for 5-OP-RU-induced activation (CD69): SKW-3 MBV28, in presence of 1 nM 5-OP-RU. The protocol: Next, we explored whether RF catabolites could activate SKW-3 cells expressing two different MAIT TCRs. Distinct responses of T cells expressing TCRs with varying TRBV chain usage reinforces the role of Vβ in modulating MAIT responses to various ligands ([Chancellor et al., 2023]; [Gherardin et al., 2016]; [Seneviratna et al., 2022]).The surface expression of CD69 was measured as a marker for activation of cells expressing the AF-7 (TRAV1-2/TRBV6-1) or MBV28 (TRAV1-2/TRBV28) TCRs after co-culture with C1R.MR1 cells and the ligands.
C1R.MR1 cells (1 x 10^5) were initially stained with CTV for 15 minutes and then incubated with RF catabolites for 20 h. […] Cells were subsequently stained with PE-Cy7-conjugated anti-CD69 (BD; 1:100) and PE-labelled anti-MR1 (26.5 clone; BD; 1:100), before analysis on LSRFortessa (BD Biosciences) flow cytometer. Activation of SKW-3-MAIT cells was reflected by the cell-surface CD69 expression.

T1 sequence (Q95460 23-302 limits assumed): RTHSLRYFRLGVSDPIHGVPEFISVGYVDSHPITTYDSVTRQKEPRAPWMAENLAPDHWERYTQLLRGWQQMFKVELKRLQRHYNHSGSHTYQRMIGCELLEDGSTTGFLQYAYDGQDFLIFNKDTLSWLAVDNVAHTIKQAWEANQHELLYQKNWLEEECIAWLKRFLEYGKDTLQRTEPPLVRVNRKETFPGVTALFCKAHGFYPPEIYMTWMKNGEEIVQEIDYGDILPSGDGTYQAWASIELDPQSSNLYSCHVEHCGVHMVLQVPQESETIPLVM
T1 sequence (P61769 21-119 partner): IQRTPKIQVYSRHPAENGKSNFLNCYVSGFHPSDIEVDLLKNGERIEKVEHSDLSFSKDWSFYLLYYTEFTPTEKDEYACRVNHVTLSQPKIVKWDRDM

Turning to `O=c1nc2[nH]c3ccccc3nc-2c(=O)[nH]1` [Alloxazine, alloxazine], the “MR1 cell surface expression” value in the experiment with C1R.MR1 cells (C1R.MR1, 3 h) was “reduced MR1 cell surface”. Also, in experiment [1], the “folding of the MR1-β2m co-complex in solution” value (“folding” below) was “facilitated the correct folding”. In addition, in experiment [2], the “5-OP-RU-induced activation (CD69)” value is reported as “could interfere with the 5-OP-RU-induced activation of MBV28 in a dose-dependent manner”.
For the compound `Cc1cc2nc3[nH]c(=O)[nH]c(=O)c3nc2cc1C` [Lumichrome, 7,8-dimethylalloxazine], in the experiment with C1R.MR1 cells (C1R.MR1, 3 h), the “MR1 cell surface expression” value is recorded as “reduced MR1 cell surface”. Also, the “rank as down-regulator of MR1 cell surface expression” value with C1R.MR1 cells (overall, C1R.MR1 and THP-1.MR1) was “most potent down-regulator”. The “folding” value in experiment [1] is reported as “facilitated the correct folding”. The “5-OP-RU-induced activation (CD69)” value in experiment [2] is recorded as “enhanced the 5-OP-RU-induced CD69 expression”. For the same compound, the “CD69 surface expression (activation)” value in experiment [2] (SKW-3 MBV28, ligand alone) is on record as “minor reductions in CD69”. Further, the “MR1 expression on C1R.MR1 in co-culture” value in experiment [2] (SKW-3 MBV28 co-culture with 5-OP-RU) is on record as “dose-dependent reduction in MR1 expression”.
Take `Cc1cc2nc3c(=O)[nH]c(=O)nc-3n(C)c2cc1C` [Lumiflavin]: in experiment [1], the “folding” value is “facilitated the correct folding”.
For `Cc1cc2nc3c(=O)[nH]c(=O)nc-3n(C[C@H](O)[C@H](O)[C@H](O)CO)c2cc1C` [RF, Riboflavin], the “MR1 cell surface expression” value with C1R.MR1 cells (C1R.MR1, 3 h) was “did not alter MR1 expression from the baseline”; with C1R.MR1 cells (C1R.MR1, 16 h) it was “modestly upregulated MR1”. Further, in experiment [1], the “folding” value is given as “did not sponsor refolding”. In addition, the “5-OP-RU-induced activation (CD69)” value in experiment [2] is listed as “could not compete with 5-OP-RU”.
